The text below walks through data of US20240101584A1, “TARGETED DELIVERY OF 1,2,4,5 TETRAOXANE COMPOUNDS AND THEIR USES” (Westlake University, priority 2021, published 2024).

The test system of experiment [1] is MDA-MB-231 cells. As to conditions: reported data of known compounds; cited from earlier work.
In another experiment the test system is HL-60 cells. As to conditions: cited from earlier work; for IC50: reported data of known compounds.
Another experiment relates to HCT116 cells. The settings on record: reported data of known compounds; cited from earlier work.
Another experiment deals with HepG2 cells. As to conditions: reported compound in the literature; read-out: overall IC50, HepG2 cells, reported compound; cited from earlier work.
The subject of a further experiment is HEK293 cells. As to conditions: reported compound in the literature; read-out: overall IC50, HEK293 cells, reported compound; cited from earlier work.
The test system of a further experiment is PMBC. The settings on record: reported compound in the literature; cited from earlier work.
The next experiment concerns Hela cells. As to conditions: reported compound in the literature; read-out: overall IC50, Hela cells, reported compound; cited from earlier work.
In the next experiment the test system is HeyA8 cells. The experiment is described as follows: CellTiter-Glo viability, adherent HeyA8 ovarian cancer cells. The format is cell-based. As to conditions: 5 μM. In general terms: ATP-based viability assays read luminescence as a measure of living cells.
In experiment [2] the test system is lipid ROS in MDA-MB-231 cells. Put plainly: C11-BODIPY lipid ROS detection in MDA-MB-231 cells. The settings on record: 48 5 μM, 37b 1 μM, RSL3 0.5 μM; 6 h incubation. Type of experiment: cell-based. The protocol:
FIG. 11 is a bar graph showing the detection of lipid ROS with compound 48 (5 μM), compound 37b (1 μM), or RSL3 (0.5 μM) by BODIPY 581/591 C11 after 6 h incubation in MDA-MB-231 cells. **P≤0.01 versus DMSO group. Data are plotted as the mean±SD, n=3 biologically independent samples. All P values were determined using two-tailed Student's t-test.
Since lipid peroxidation is the evidence about ferroptosis, C11-BODIPY probe is used to validate the lipid ROS generated by tetraoxanes. It is a ratiometric membrane-targeted probe which changes the emission from 590 nm to 510 nm upon the detection of lipid ROS. Here, MDA-MB-231 cells were treated with 48, 37b and RSL3, respectively. The lipid ROS levels were quantified by flow cytometry. Untreated group gave weak signal in FL1 channel (FIG. 11).

For experiment [3], the system named is MDA-MB-231 cells. Put plainly: MTT viability assay, MDA-MB-231 cells. Type of experiment: cell-based. As to conditions: MTT, 48 h incubation, mean, n = 3; read-out: IC50 against MDA-MB-231 cells. The protocol:
(§1) The anticancer activities of the exemplary compounds listed in Example 1 were tested against human cervix Hela cells, mammary breast cancer MDA-MB-231 cells, human hepatocellular HepG2 cells, human colorectal HCT116 cells, mammary ductal T47D cells, non-cancerous NIH3T3 cells, dog's kidney MDCK cells, and mouse brain bEnd.3 cells, respectively.
(In general: Tetrazolium assays rely on reduction of a dye to a coloured formazan, in cell work by metabolically active cells.)

The subject of the next experiment is NIH3T3 cells. The experiment is described as follows: MTT viability assay, non-cancerous NIH3T3 cells. Type of experiment: cell-based. The protocol:
as §1

Where two headings read alike, the source gives them in different places. Some results are limits rather than exact numbers.

In general, IC50 refers to the concentration needed to halve the response being measured.

As to `CC(C)(N)CNC(=O)C[C@H]1CC[C@]2(CC1)OO[C@]1(O2)C2CC3CC(C2)CC1C3` [OZ277], the IC50 with MDA-MB-231 cells [1] is 35.2 µM; in the experiment on HL-60 cells, 53.8 µM; in the experiment on HCT116 cells it was 68.3 µM.
Take `CN1CCN(C2CCN(C(=O)CC3CCC4(CC3)OOC3(OO4)C4CC5CC(C4)CC3C5)CC2)CC1` (stereo not drawn) [RKA182]: the IC50 was > 12 µM with HepG2 cells; > 12 µM in the experiment with HEK293 cells; 46.6 ± 0.7 µM with PMBC; 11.6 ± 0.4 µM in the experiment on HL-60 cells; > 12 µM in the experiment on Hela cells. Besides, the “best selectivity index (PMBC versus HL-60)” value with HL-60 cells (reported compound in the literature) is given as 4.
For `COC(=O)c1ccc([C@@H]2c3[nH]c4ccccc4c3C[C@@H](C(=O)OC)N2C(=O)CCl)cc1` [RSL3, reference compound], the “elimination of adherent HEYA8 cells” value in the experiment on HeyA8 cells is listed as “eliminate the majority of adherent HEYA8 cells”. Besides, the “lipid ROS (BODIPY 581/591 C11, FL1, flow cytometry)” value in experiment [2] is recorded as “fluorescence enhancement in FL1 was observed”. The IC50 with MDA-MB-231 cells [3] is 0.041 µM; in the experiment on NIH3T3 cells (MTT, 48 h incubation, mean, n = 3, read-out: IC50 against NIH3T3 cells), 0.028 µM; with NIH3T3 cells (text b507, read-out: IC50 on NIH3T3 cells), 0.0283 ± 0.0086 µM. Further, the “selectivity between non-cancerous cells and cancer cells” value in the experiment with NIH3T3 cells is “more cytotoxic to non-cancerous cells than cancer cells”.
